molecular target: T1, C-terminal GST-tagged, recombinant, human IGF-1R, amino acids 954-1367 (Homo sapiens, UniProt P08069); test: IGF-1R kinase activity, homogenous time-resolved fluorescence (HTRF) in vitro kinase assay; format: biochemical; conditions: IGF-1R kinase HTRF assay, ATP 50 μM, biotinylated peptide substrate 0.5 μM, 60 minutes at room temperature
T1 construct: human IGF-1R, amino acids 954-1367 expressed by baculovirus in Sf21 cells; GST (C); purchased Cell Signaling Technology; host or cells: baculovirus in Sf21 cells
T1 sequence (P08069 954-1367): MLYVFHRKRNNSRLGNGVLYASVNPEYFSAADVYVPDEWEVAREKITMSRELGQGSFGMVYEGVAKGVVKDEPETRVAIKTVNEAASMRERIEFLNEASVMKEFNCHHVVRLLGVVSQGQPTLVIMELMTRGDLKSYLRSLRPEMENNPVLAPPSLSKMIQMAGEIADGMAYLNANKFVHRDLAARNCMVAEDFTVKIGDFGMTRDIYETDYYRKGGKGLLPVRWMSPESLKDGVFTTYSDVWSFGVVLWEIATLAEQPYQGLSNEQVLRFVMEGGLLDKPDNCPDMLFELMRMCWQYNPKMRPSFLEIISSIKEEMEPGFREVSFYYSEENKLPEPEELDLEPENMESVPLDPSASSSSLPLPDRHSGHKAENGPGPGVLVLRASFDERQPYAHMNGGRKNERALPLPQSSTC
Method in brief: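 HTRF assay with baculovirus/Sf21-expressed enzyme, 50 μM ATP, 0.5 μM biotinylated peptide substrate, 2% DMSO, in HEPES pH 7.5 buffer with MgCl2, 2 mM MnCl2, BSA, DTT; 60 min at room temperature. EDTA-quenched, detected with streptavidin-APC and Eu-cryptate anti-phosphotyrosine mAb; 615/665 nm ratio used for IC50.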

| IC50 [nM] | SMILES |
| --- | --- |
| 101 to 500 | COc1cc(NCC(C)(C)O)ccc1Nc1nccc(-c2c(-c3ccc(OCc4ccccc4)c(OC)c3)nc3ccccn23)n1 [Example 45, 1-({4-[(4-{2-[4-(benzyloxy)-3-methoxyphenyl]imidazo[1,2-a]pyridin-3-yl}pyrimidin-2-yl)amino]-3-methoxyphenyl}amino)-2-methylpropan-2-ol] |
| < 25 | COc1cc(N2CCC(N(C)C)CC2)ccc1Nc1nccc(-c2c(-c3ccc(OCc4ccccc4)c(OC)c3)nc3sccn23)n1 [Example 84, 4-{6-[4-(benzyloxy)-3-methoxyphenyl]imidazo[2,1-b][1,3]thiazol-5-yl}-N-{4-[4-(dimethylamino)piperidin-1-yl]-2-methoxyphenyl}pyrimidin-2-amine] |
| < 25 | CN(C)CCc1cccc(Nc2nccc(-c3c(-c4ccc(OCc5ccccc5)cc4)nn4ccccc34)n2)c1 [Example 75, 4-{2-[4-(benzyloxy)phenyl]pyrazolo[1,5-a]pyridin-3-yl}-N-{3-[2-(dimethylamino)ethyl]phenyl}pyrimidin-2-amine] |
| 25 to 100 | COc1cc(-c2nc3sccn3c2-c2ccnc(Nc3cccc(CCN(C)C)c3)n2)ccc1OCc1ccccc1 [Example 85, 4-{6-[4-(benzyloxy)-3-methoxyphenyl]imidazo[2,1-b][1,3]thiazol-5-yl}-N-{3-[2-(dimethylamino)ethyl]phenyl}pyrimidin-2-amine] |

The next lines start with the molecule.

| SMILES | IC50 [nM] |
| --- | --- |
| Fc1ccc(Nc2nccc(-c3c(-c4ccc(OCc5ccccc5)cc4)nc4ccccn34)n2)c(F)c1 [Example 29, 4-{2-[4-(benzyloxy)phenyl]imidazo[1,2-a]pyridin-3-yl}-N-(2,4-difluorophenyl)pyrimidin-2-amine] | > 1000 |
| Fc1ccc(Nc2nccc(-c3c(-c4ccc(OCc5ccccc5)cc4)nc4ccccn34)n2)cc1 [Example 28, 4-{2-[4-(benzyloxy)phenyl]imidazo[1,2-a]pyridin-3-yl}-N-(4-fluorophenyl)pyrimidin-2-amine] | > 1000 |
| CN(C)CCc1cccc(Nc2nccc(-c3c(-c4ccc(OCc5ccccc5)c(F)c4)nc4ccccn34)n2)c1 [Example 9, 4-{2-[4-(benzyloxy)-3-fluorophenyl]imidazo[1,2-a]pyridin-3-yl}-N-{3-[2-(dimethylamino)ethyl]phenyl}pyrimidin-2-amine] | 25 to 100 |
| COc1cc(-c2nc3ccccn3c2-c2ccnc(Nc3ccc(CCN4CCCC4)cc3)n2)ccc1OCc1ccccc1 [Example 23, 4-{2-[4-(benzyloxy)-3-methoxyphenyl]imidazo[1,2-a]pyridin-3-yl}-N-[4-(2-pyrrolidin-1-ylethyl)phenyl]pyrimidin-2-amine] | 25 to 100 |
